Like-named read-outs stand apart in the source and are kept apart here.
Legend:
Assay in all cases: Test B pre-/postemergence plant response
Assay type in all cases: in vivo
[1] = test system: Italian ryegrass (Lolium multiflorum); conditions: for Ryegrass, Italian plant response rating: 8 g ai/ha; for pest or weed control at 16 g/ha / pest or weed control at 31 g/ha / pest or weed control at 62 g/ha: Lolium multiflorum, read-out: Plant response rating, Ryegrass, Italian; for pest or weed control at 16 g/ha: 16 g ai/ha; for pest or weed control at 31 g/ha: 31 g ai/ha; for pest or weed control at 62 g/ha: 62 g ai/ha
Summary of the method: (§1)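 Visual scoring from 0 (no effect) to 100 (complete control) against untreated controls was done 13 to 15 days after greenhouse treatment. Chemicals were formulated in a surfactant-containing non-phytotoxic solvent and applied to soil preemergence or to 1- to 4-leaf (2-18 cm) plants postemergence.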

[2] = test system: bermudagrass (Cynodon dactylon); conditions: for Bermudagrass plant response rating: 8 g ai/ha; for pest or weed control at 16 g/ha / pest or weed control at 31 g/ha / pest or weed control at 62 g/ha: Cynodon dactylon, read-out: Plant response rating, Bermudagrass; for pest or weed control at 16 g/ha: 16 g ai/ha; for pest or weed control at 31 g/ha: 31 g ai/ha; for pest or weed control at 62 g/ha: 62 g ai/ha
Summary of the method: as §1

[3] = test system: common (oilseed) sunflower (Helianthus annuus); conditions: Preemergence
Summary of the method: as §1

[4] = test system: downy bromegrass (Bromus tectorum); conditions: for Bromegrass, Downy plant response rating: 8 g ai/ha; for pest or weed control at 16 g/ha / pest or weed control at 31 g/ha / pest or weed control at 62 g/ha: Bromus tectorum, read-out: Plant response rating, Bromegrass, Downy; for pest or weed control at 16 g/ha: 16 g ai/ha; for pest or weed control at 31 g/ha: 31 g ai/ha; for pest or weed control at 62 g/ha: 62 g ai/ha
Summary of the method: as §1

[5] = test system: giant foxtail (Setaria faberii); conditions: for Foxtail, Giant plant response rating: 8 g ai/ha; for pest or weed control at 16 g/ha / pest or weed control at 31 g/ha / pest or weed control at 62 g/ha: Setaria faberi, read-out: Plant response rating, Foxtail, Giant; for pest or weed control at 16 g/ha: 16 g ai/ha; for pest or weed control at 31 g/ha: 31 g ai/ha; for pest or weed control at 62 g/ha: 62 g ai/ha
Summary of the method: as §1

[6] = test system: lambsquarters (Chenopodium album); conditions: for Lambsquarters plant response rating: 8 g ai/ha; for pest or weed control at 16 g/ha / pest or weed control at 31 g/ha / pest or weed control at 62 g/ha: Chenopodium album, read-out: Plant response rating, Lambsquarters; for pest or weed control at 16 g/ha: 16 g ai/ha; for pest or weed control at 31 g/ha: 31 g ai/ha; for pest or weed control at 62 g/ha: 62 g ai/ha
Summary of the method: as §1

[7] = test system: morningglory (Ipomoea coccinea)
Summary of the method: as §1

[8] = post-emergence, Postemergence, scale 0 to 100
[9] = post-emergence, Postemergence, scale 0 to 100, 0 no effect, 100 complete control
[10] = pre-emergence, Preemergence, scale 0 to 100 (0 no effect, 100 complete control)
[11] = pre-emergence, Preemergence, 0 to 100 scale, 0 no effect, 100 complete control
[12] = pre-emergence, Preemergence, scale 0 to 100

Compound: CCc1c(C)c(-c2ccc(Cl)cc2)nn1-c1c(O)cnn(C)c1=O [Compound 26, 4-[3-(4-chlorophenyl)-5-ethyl-4-methyl-1H-pyrazol-1-yl]-5-hydroxy-2-methyl-3(2H)-pyridazinone]
- Ryegrass, Italian plant response rating ([1]; postemergence, 0-100 scale): 70
- pest or weed control at 16 g/ha [1, 8]: 85%
- pest or weed control at 31 g/ha [1, 9]: 85%
- pest or weed control at 62 g/ha [1, 9]: 100%
- pest or weed control at 16 g/ha [1, 10]: 90%
- pest or weed control at 31 g/ha [1, 11]: 100%
- pest or weed control at 62 g/ha [1, 12]: 100%
- Ryegrass, Italian plant response rating ([1]; Preemergence, scale 0 to 100): 50
- Bermudagrass plant response rating ([2]; postemergence, 0-100 scale): 0
- pest or weed control at 16 g/ha [2, 8]: 0%
- pest or weed control at 31 g/ha [2, 9]: 0%
- pest or weed control at 62 g/ha [2, 9]: 0%
- pest or weed control at 16 g/ha [2, 10]: 0%
- pest or weed control at 31 g/ha [2, 11]: 0%
- pest or weed control at 62 g/ha [2, 12]: 80%
- Bermudagrass plant response rating ([2]; Preemergence, scale 0 to 100 (0 no effect, 100 complete control)): 0
- pest or weed control at 16 g/ha ([3]; Helianthus annuus, pre-emergence, 16 g ai/ha, scale 0 to 100 (0 no effect, 100 complete control), read-out: Plant response rating, Sunflower): 0%
- pest or weed control at 31 g/ha ([3]; Helianthus annuus, pre-emergence, 31 g ai/ha, 0 to 100 scale, 0 no effect, 100 complete control, read-out: Plant response rating, Sunflower): 0%
- pest or weed control at 62 g/ha ([3]; Helianthus annuus, pre-emergence, 62 g ai/ha, scale 0 to 100, read-out: Plant response rating, Sunflower): 0%
- Sunflower plant response rating ([3]; 8 g ai/ha, scale 0 to 100): 0
- Bromegrass, Downy plant response rating ([4]; postemergence, 0-100 scale): 0
- pest or weed control at 16 g/ha [4, 8]: 10%
- pest or weed control at 31 g/ha [4, 9]: 30%
- pest or weed control at 62 g/ha [4, 9]: 60%
- pest or weed control at 16 g/ha [4, 10]: 0%
- pest or weed control at 31 g/ha [4, 11]: 10%
- pest or weed control at 62 g/ha [4, 12]: 65%
- Bromegrass, Downy plant response rating ([4]; Preemergence, scale 0 to 100): 0
- Foxtail, Giant plant response rating ([5]; postemergence, 0-100 scale): 80
- Foxtail, Giant plant response rating ([5]; Preemergence, scale 0 to 100): 65
- pest or weed control at 16 g/ha [5, 8]: 95%
- pest or weed control at 31 g/ha [5, 9]: 95%
- pest or weed control at 62 g/ha [5, 9]: 100%
- pest or weed control at 16 g/ha [5, 10]: 95%
- pest or weed control at 31 g/ha [5, 11]: 100%
- pest or weed control at 62 g/ha [5, 12]: 100%
- Lambsquarters plant response rating ([6]; postemergence, 0-100 scale): 0
- pest or weed control at 16 g/ha [6, 8]: 0%
- pest or weed control at 31 g/ha [6, 9]: 0%
- pest or weed control at 62 g/ha [6, 9]: 0%
- pest or weed control at 16 g/ha [6, 10]: 0%
- pest or weed control at 31 g/ha [6, 11]: 0%
- pest or weed control at 62 g/ha [6, 12]: 0%
- Lambsquarters plant response rating ([6]; Preemergence, scale 0 to 100): 0
- Morningglory plant response rating ([7]; 8 g ai/ha, postemergence, 0-100 scale): 0
- pest or weed control at 16 g/ha ([7]; Ipomoea, post-emergence, Postemergence, 16 g ai/ha, scale 0 to 100, read-out: Plant response rating, Morningglory): 0%
- pest or weed control at 31 g/ha ([7]; Ipomoea, post-emergence, Postemergence, 31 g ai/ha, scale 0 to 100, 0 no effect, 100 complete control, read-out: Plant response rating, Morningglory): 0%
